Consider 19 compounds from patent US20050203156A1, “Hydantoins having RNase modulatory activity” (Wyeth, priority 2004, published 2005).

Experiment [1] concerns the target T1, HIV reverse transcriptase (RNase H activity) (Human immunodeficiency virus type 1 group M subtype B, UniProt P04585).
T1 construct: HIV reverse transcriptase has an RNase H domain at the C-terminus of its p66 subunit
Kind of experiment: Inhibition of RNase H / HIV reverse transcriptase (fluorescent probe-target hybrid assay). Particulars: Table I. The experiment is classed as biochemical. From the text:
RNase H is an enzyme responsible for the removal of RNA primers from leading and lagging strands during DNA synthesis. It is an important enzyme for the replication of bacterial, viral and human genomes. HIV reverse transcriptase has an RNase H domain at the C-terminus of its p66 subunit. […] The ability of the compounds of the present invention to inhibit RNase H, and more particularly HIV reverse transcriptase, may be measured or determined by any means known in the art.
Preferably, the RNase H/HIV reverse transcriptase modulatory activity of the compounds of the present invention may be determined by the methods described in a copending U.S. provisional patent Application No. 60/436,125, filed Dec. 19, 2002 and PCT Publication No. WO 2004/059012, filed Dec. 22, 2003, published Jul. 15, 2004, entitled ASSAY FOR RNase ACTIVITY of Olson et al., incorporated herein by reference in their entirety. Specifically, the modulatory activity of a hydantoin derivative of the present invention may be determined by hybridizing a target nucleic acid to a fluorescently labeled oligonucleotide probe complementary to the target nucleic acid and containing a fluorophor at one terminus and a quenching group at the other terminus to obtain a probe-target hybrid, wherein (i) the unhybridized probe adopts a conformation that places the fluorophor and quencher in such proximity that the quencher quenches the fluorescent signal of the fluorophor, and (ii) the formation of the probe-target hybrid causes sufficient separation of the fluorophor and quencher to reduce quenching of the fluorescent signal of the fluorophor. Next, a first and second sample containing the probe-target hybrid are prepared. The probe-target hybrid of the first sample is then contacted with an RNase H enzyme (such as HIV reverse transcriptase) in an amount sufficient to selectively cleave the target nucleic acid and thereby release the intact probe. The probe-target hybrid of the second sample is also contacted with the RNase H enzyme in an amount sufficient to selectively cleave the target nucleic acid and thereby release the intact probe in the presence of a hydantoin derivative of the present invention. The release of the probe in each sample may then be detected by measuring the […] in the fluorescent signal of the fluorophor as compared to the signal of the probe-target hybrid. A comparison of the rate of the decrease in the fluorescent signal of the fluorophor in the two samples is made to determine whether there is a difference in the rate of the decrease in the two samples. […] This method is also useful to identify hydantoin derivatives of the present invention, wherein candidate hydantoin derivatives are screened for their ability to modulate RNase/HIV reverse transcriptase activity.

Experiment [2] concerns the target T2, HIV reverse transcriptase (RDDP polymerase activity) (Human immunodeficiency virus type 1 group M subtype B, UniProt P04585).
T2 construct: HIV Reverse transcriptase (RT) 66/p51; purchased Worthington
Kind of experiment: RNA dependent DNA polymerase (RDDP) activity of HIV RT, polyrA-oligodT12-18 / 33P TTP incorporation. It counts as biochemical.

Molecules are shown by their SMILES. Some results are limits rather than exact numbers.

One may read the IC50 as the midpoint of a concentration-inhibition curve. In turn, `O=C(c1ccccc1)N1C(=O)N2CCc3ccccc3C2(c2ccccc2)C1=O` (stereo not shown) [2-benzoyl-10b-phenyl-6,10b-dihydro-5H-imidazo[5,1-a]isoquinoline-1,3-dione] returned an IC50 in experiment [1] of 63 µM. This lies in the double-digit micromolar range.
For the compound `O=C1NC(c2ccccc2)(c2ccccc2)C(=O)N1CCCBr` [3-(3-bromopropyl)-5,5-diphenyl-2,4-imidazolidinedione], the half-inhibitory concentration (IC50) in experiment [2] was above 146 µM; in experiment [1], 56 µM.
As to `Cc1cc(C(=O)N2C(=O)NC(C)(c3ccccc3)C2=O)ccc1Cl` (stereo not shown) [3-(4-chloro-3-methylbenzoyl)-5-methyl-5-phenylimidazolidine-2,4-dione], the midpoint of inhibition in experiment [1], the IC50, lay at 100 µM.
In the case of `Cc1ccc(C(=O)C(C)N2C(=O)NC(C)(c3ccccc3)C2=O)cc1Cl` (stereo not shown) [3-[2-(3-chloro-4-methylphenyl)-1-methyl-2-oxoethyl]-5-methyl-5-phenyl-2,4-imidazolidinedione], the IC50 in experiment [2] is above 103 µM; in experiment [1], 51 µM.
In the same order, the values of `CC1(c2ccccc2)NC(=O)N(C(=O)/C=C/c2ccc(Cl)c(Cl)c2)C1=O` (stereo not shown) [3-[(2E)-3-(3,4-dichlorophenyl)prop-2-enoyl]-5-methyl-5-phenylimidazolidine-2,4-dione] are above 107 µM and 52 µM.
On to `CC1(c2ccccc2)NC(=O)N(C(=O)/C=C/c2ccc(F)c(C(F)(F)F)c2)C1=O` (stereo not shown) [3-{(2E)-3-[4-fluoro-3-(trifluoromethyl)phenyl]prop-2-enoyl}-5-methyl-5-phenylimidazolidine-2,4-dione], for which the IC50 in experiment [2] was above 115 µM; in experiment [1], 99 µM.
The corresponding values for `CCC1(c2ccc(C)cc2)N=C(O)N=C1O` (stereo not shown) [4-ethyl-4-(4-methylphenyl)-4H-imidazole-2,5-diol] are above 184 µM and 4 µM.
In the same order, the values of `C=CN1C(=O)NC(C)(C)C1=O` [5,5-dimethyl-3-vinyl-imidazolidine-2,4-dione] are above 107 µM and 50 µM.
With `O=C1NC(=O)C(=Cc2cc(Cl)cc(Cl)c2O)N1` [5-(3,5-Dichloro-2-hydroxy-benzylidene)-imidazolidine-2,4-dione], the concentration for half-maximal inhibition (IC50) in experiment [2] is above 102 µM; in experiment [1], 57 µM.
For the compound `O=C1NC(=O)C(=Cc2cc(Br)cc(Br)c2O)N1` [5-(3,5-dibromo-2-hydroxy-benzylidene)-imidazolidine-2,4-dione], the concentration for half-maximal inhibition (IC50) in experiment [2] is above 111 µM; in experiment [1], 13 µM.
`CCC1(c2ccc(Br)cc2)NC(=O)NC1=O` (stereo not shown) [5-(4-bromo-phenyl)-5-ethyl-imidazolidine-2,4-dione]: half-maximal inhibition in experiment [1] (IC50) was put at 64 µM.
`Cc1ccc(C2(C3CC3)NC(=O)NC2=O)cc1C` (stereo not shown) [5-cyclopropyl-5-(3,4-dimethyl-phenyl)-2,4-imidazolidinedione]: the IC50 is above 122 µM in experiment [2] and 41 µM in experiment [1].
The corresponding values for `CC1(c2ccccc2)NC(=O)N(C(=O)/C=C/c2ccccc2)C1=O` (stereo not shown) [5-methyl-5-phenyl-3-[(2E)-3-phenylprop-2-enoyl]imidazolidine-2,4-dione] are above 260 µM and 46 µM.
In the same order, the values of `CC1(C)SC2C(NC(=O)C(NC(=O)CN3C(=O)NC(c4ccccc4)(c4ccccc4)C3=O)c3ccccc3)C(=O)N2C1C(=O)O` (stereo not shown) [6-[{[{(2,5-dioso-4,4-diphenylimidazolidin-1-yl)acetyl]amino}(phenyl)acetyl]amino}-3,3-dimethyl-7-oxo-4-thia-1-azabicyclo[3.2.0]heptane-2-carboxylic acid] are above 62 µM and 4 µM.
As to `C[C@]1(c2ccccc2)NC(=O)N(C(=O)/C=C/c2ccc(C(F)(F)F)cc2)C1=O` [(5R)-5-methyl-5-phenyl-3-{(2E)-3-[4(trifluoromethyl)phenyl]prop-2-enoyl]imidizolidine-2,4-dione], the IC50 was above 105 µM in experiment [2] and 58 µM in experiment [1].
The corresponding values for `CC[C@@]1(c2ccc(C)cc2)NC(=O)NC1=O` [(5S)-5-ethyl-5-(4-methylphenyl)imidazolidine-2,4-dione] are above 180 µM and 2 µM.
As for `C[C@@]1(c2ccccc2)NC(=O)N(C(=O)/C=C/c2ccc(C(F)(F)F)cc2)C1=O` [(5S)-5-methyl-5-phenyl-3-{(2E)-3-[4-(trifluoromethyl)phenyl]prop-2-enoyl}imidazolidine-2,4-dione], the IC50 is above 100 µM in experiment [2] and 98 µM in experiment [1].
For the compound `Cc1cn([C@H]2C[C@H](N=[N+]=[N-])[C@@H](CO)O2)c(=O)[nH]c1=O` [AZT, reference compound], the IC50 in experiment [2] was below 0.2 µM.
Take `CC(C)(C)OC(=O)N1C(=O)N(C(=O)OC(C)(C)C)C2(CCN(Cc3ccccc3)CC2)C1=O` [di(tert-butyl) 8-benzyl-2,4-dioxo-1,3,8-triazaspiro[4.5}decane-1,3-dicarboxylate]: the IC50 is above 103 µM in experiment [2] and 87 µM in experiment [1].
